From patent US20030109523A1, “Bicyclic antagonists selective for the alphavbeta3 integrin” (Wyeth, priority 1999, published 2003)
Structures can show the parent of a compound that is named as a salt. Where two headings read alike, the source gives them in different places. Blank lines part the entries; values can stand above or below the molecule they belong to.

Experiments:
[1] = target: T1, Vitronectin Receptor (αVβ3) (Homo sapiens, UniProt P05106+P06756); experiment: Vitronectin Receptor (αVβ3) Binding Test Procedure; conditions: for IC50: read-out: (αVβ3) IC50 RECEPTOR BINDING
T1 construct: expressed in transfected cells; host or cells: 512P5 cells (plasma membrane preparation)

αVβ3 integrin = target: T2, αVβ3 integrin (Homo sapiens, UniProt P05106+P06756); experiment: Osteopontin-αVβ3 Cell Attachment Test Procedure; format: cell-based; conditions: for IC50: attachment of cells to osteopontin, read-out: (αVβ3) IC50 CELL ATTACHMENT
T2 construct: αVβ3-expressing cell lines are maintained by standard tissue culture techniques; endogenous in cells; host or cells: αVβ3-expressing cell lines
Method: Osteopontin-αVβ3 Cell Attachment Test Procedure
Measuring the effect of compounds on the RGD-dependent attachment of cells to osteopontin mediated by the αVβ3 integrin.
Following incubation the wells were aspirated and washed once with D-PBS; plates can either be used immediately or stored for up to 1 week at 4° C. Prior to assay, the wells were blocked with 1% bovine serum albumin (BSA) in cell suspension media for 1 hour at 37° C. Following the blocking period, wells were aspirated and washed once with D-PBS.
αVβ3-expressing cell lines are maintained by standard tissue culture techniques. […] The cells were pelleted by low-speed centrifugation and washed three times with 0.5 mg/mL trypsin inhibitor in D-PBS (Sigma). The final cell pellet was resuspended in cell suspension media at a concentration of 10^6 cells/mL.
Incubation: 100 μL of diluted test compound was added to osteopontin-coated wells (in triplicate) followed by 100 μL of cell suspension; background cell attachment was determined in uncoated wells. The plate was incubated at 25° C. in a humidified air atmosphere for 1.5 hours. Following the incubation period, the wells were gently aspirated and washed once with D-PBS.
Cell Number Detection: The number of cells attached was determined by an MTT dye conversion assay (Promega) according to the manufacturer's instructions. Briefly, MTT dye was diluted in cell suspension media (15:85) and 100 μL was added to each well. […] The assay plates were covered and incubated at 37° C. in a humidified air atmosphere overnight.
The individual well optical density was expressed as a percentage of the maximal attachment (% Max) wells minus background attachment, and reported as the mean ±standard deviation.

osteoclasts = experiment: Osteoclast Bone Pitting; format: cell-based, rat
Method: Osteoclast Bone Pitting The test procedure was conducted as described by R. J. Murrills and D. W. […] At this pH the adherent osteoclasts excavate an adequate number of resorption pits for assay purposes. Slices were fixed in 2.5% glutaraldehyde and osteoclasts counted following tartrate-resistant acid phosphatase staining. […] All cells were stripped from the slice by sonication on 0.25M NH4OH and the resorption pits formed by the osteoclasts during the experiment stained with toluidine blue. Resorption pits were quantified by manually counting. The experiments were conducted according to a block design with osteoclasts from each animal exposed to each treatment. Three replicate slices were used per treatment per animal, such that a total of 96 slices were examined for an experiment involving four animals and eight treatments (including control). Several parameters were recorded on a “per slice” basis: number of pits, number of osteoclasts, number of pits per osteoclast, number of fibroblast-like bone cells. SAS or JMP statistical software were used for statistical analysis. […] IC50s were calculated using dose-response curves.

αIIbβ3 integrin = target: T3, αIIbβ3 integrin (Homo sapiens, UniProt P05106+P08514); experiment: ADP-Induced Platelet Aggregation; format: cell-based; conditions: Table VII; for IC50: ADP 20 uM, human platelets, read-out: Platelet Aggregation αIIbβ3 IC50
T3 construct: Human Platelets: Platelet-enriched plasma was obtained commercially from a donor pool; from tissue; host or cells: human platelet-rich plasma from a commercial donor pool
Method: Measurement of the Effect of Compounds on ADP-Induced Platelet Aggregation
Measuring the effect of compounds on ADP-induced platelet aggregation mediated by a fibrinogen-αIIbβ3 integrin interaction.
Human Platelets: Platelet-enriched plasma was obtained commercially from a donor pool. The plasma was tested prior to shipment and found to be negative for HIV, HCV and Hepatitis B. Platelet-rich plasma (PRP) was obtained by diluting plasma to an approximate final concentration of 3×10(6) platelets per mL in platelet poor plasma (PPP). PPP was the supernatant of a lowspeed centrifugation of plasma.
Adenosine diphosphate (ADP): ADP was obtained commercially and diluted to 1 mM (stock solution) in distilled, deionized water (ddH2O).
Incubation: PRP and PPP were prewarmed in a water bath at 37° C. […] PRP plus sample compound in a final volume of 500 uL was added to a pre-warmed cuvette in a ChronoLog aggregometer. A control containing PRP and 5 uL of vehicle was treated similarly to the test cuvette; final vehicle concentration was 1%. The two cuvettes were incubated with stirring (1000 rpm) at 37° C. for 5 minutes. Five hundred microliters of PPP was used as a reference (100% aggregation).
Aggregation: To begin the test, ADP was added yielding a final concentration of 20 uM to both samples (plus and minus sample compound). Light transmittance was monitored continuously and compared to the reference cuvette. After five minutes, the test was terminated and the slope and maximal amplitude of the resulting aggregation plot was calculated by the aggregometer.
The percent of maximal aggregation is the ratio of the maximal aggregations of the sample cuvette to the control multiplied by 100 (% Max) and reported as the mean+−standard deviation.

[2] = @ 30 μM, % Max = percentage of the specific binding, read-out: (αVβ3) RECEPTOR BINDING, % @ concentration
[3] = @200 μM, percent of maximal aggregation
[4] = @ 100 μM, % of maximal attachment, read-out: (αVβ3) CELL ATTACHMENT, % @ concentration

T3 sequence (P08514 32-887 limits assumed): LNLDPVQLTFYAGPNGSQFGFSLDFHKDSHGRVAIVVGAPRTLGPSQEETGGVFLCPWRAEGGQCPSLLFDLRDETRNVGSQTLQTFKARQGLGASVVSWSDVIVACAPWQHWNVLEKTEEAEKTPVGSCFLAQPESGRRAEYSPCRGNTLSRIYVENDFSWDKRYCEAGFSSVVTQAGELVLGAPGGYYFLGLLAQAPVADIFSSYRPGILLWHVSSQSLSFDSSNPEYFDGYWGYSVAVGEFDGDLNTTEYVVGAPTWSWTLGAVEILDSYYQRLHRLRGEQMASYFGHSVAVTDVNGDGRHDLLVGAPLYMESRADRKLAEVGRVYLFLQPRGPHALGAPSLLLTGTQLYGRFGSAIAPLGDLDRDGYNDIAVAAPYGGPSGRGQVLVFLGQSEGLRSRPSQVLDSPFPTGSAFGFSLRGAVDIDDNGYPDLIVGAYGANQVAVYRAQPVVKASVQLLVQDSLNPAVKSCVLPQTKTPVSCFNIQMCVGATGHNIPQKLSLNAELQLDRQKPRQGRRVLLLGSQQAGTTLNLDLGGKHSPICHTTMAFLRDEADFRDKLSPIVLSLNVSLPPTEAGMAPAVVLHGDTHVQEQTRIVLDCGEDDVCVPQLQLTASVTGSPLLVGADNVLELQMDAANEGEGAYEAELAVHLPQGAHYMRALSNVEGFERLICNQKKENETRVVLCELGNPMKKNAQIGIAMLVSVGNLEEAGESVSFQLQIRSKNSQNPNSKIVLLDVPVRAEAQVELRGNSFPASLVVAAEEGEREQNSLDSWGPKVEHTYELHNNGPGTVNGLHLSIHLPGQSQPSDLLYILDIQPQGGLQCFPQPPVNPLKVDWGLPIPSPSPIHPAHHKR
T3 sequence (P08514 891-1039 partner limits assumed): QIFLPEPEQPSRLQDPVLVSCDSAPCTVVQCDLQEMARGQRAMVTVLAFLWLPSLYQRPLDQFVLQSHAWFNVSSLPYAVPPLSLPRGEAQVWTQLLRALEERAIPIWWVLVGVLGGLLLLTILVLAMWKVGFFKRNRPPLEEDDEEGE
T3 sequence (P05106 27-788): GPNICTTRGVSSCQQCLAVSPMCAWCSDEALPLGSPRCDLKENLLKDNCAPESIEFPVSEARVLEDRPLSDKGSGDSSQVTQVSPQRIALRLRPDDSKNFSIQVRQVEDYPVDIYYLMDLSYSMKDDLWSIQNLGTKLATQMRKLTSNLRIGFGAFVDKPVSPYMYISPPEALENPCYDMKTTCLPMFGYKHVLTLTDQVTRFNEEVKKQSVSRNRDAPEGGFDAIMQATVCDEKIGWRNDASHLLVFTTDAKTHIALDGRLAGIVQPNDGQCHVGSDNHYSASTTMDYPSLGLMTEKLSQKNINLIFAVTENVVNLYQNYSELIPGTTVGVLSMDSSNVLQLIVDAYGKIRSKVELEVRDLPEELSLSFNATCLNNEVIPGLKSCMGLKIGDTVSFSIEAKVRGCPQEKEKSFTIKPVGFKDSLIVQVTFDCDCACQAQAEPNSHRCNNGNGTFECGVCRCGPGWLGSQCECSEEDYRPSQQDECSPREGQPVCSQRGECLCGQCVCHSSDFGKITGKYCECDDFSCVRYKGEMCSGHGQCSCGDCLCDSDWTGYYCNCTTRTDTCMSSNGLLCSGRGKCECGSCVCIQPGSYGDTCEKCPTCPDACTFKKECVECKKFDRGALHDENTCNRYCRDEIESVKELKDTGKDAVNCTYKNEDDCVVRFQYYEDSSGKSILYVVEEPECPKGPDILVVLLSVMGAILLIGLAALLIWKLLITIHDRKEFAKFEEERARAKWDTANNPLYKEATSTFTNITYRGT
T2 sequence (P06756 31-889 limits assumed): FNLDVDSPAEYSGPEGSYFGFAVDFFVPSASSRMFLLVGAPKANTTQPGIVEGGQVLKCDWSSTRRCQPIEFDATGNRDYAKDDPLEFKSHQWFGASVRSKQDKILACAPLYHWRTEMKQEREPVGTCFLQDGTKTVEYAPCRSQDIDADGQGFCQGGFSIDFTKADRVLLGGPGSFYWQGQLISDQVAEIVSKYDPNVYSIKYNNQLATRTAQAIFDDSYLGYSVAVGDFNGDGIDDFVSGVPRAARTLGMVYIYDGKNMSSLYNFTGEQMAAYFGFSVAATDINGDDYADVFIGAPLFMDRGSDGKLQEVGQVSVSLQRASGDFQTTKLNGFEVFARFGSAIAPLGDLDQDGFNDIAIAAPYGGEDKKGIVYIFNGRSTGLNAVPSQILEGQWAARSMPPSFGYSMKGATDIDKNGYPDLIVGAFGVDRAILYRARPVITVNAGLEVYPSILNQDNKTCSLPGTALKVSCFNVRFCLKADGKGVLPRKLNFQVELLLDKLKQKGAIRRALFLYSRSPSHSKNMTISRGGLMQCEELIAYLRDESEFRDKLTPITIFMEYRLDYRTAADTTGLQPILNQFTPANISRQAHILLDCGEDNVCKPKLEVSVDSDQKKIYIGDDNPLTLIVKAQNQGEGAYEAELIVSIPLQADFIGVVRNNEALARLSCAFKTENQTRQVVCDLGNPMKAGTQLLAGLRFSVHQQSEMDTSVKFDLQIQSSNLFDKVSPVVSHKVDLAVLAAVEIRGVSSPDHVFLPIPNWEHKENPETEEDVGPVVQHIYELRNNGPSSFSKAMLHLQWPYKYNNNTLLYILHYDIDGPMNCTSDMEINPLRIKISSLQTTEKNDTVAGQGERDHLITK
T2 sequence (P06756 891-1048 partner limits assumed): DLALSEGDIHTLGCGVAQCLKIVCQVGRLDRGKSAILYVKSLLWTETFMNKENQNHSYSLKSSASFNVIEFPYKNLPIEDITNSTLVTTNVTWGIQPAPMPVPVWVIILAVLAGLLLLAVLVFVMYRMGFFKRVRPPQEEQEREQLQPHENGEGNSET
T2 sequence (P05106 27-788): as the sequence (P05106 27-788) above
T1 sequence (P06756 31-889 limits assumed): as the sequence (P06756 31-889 limits assumed) above
T1 sequence (P06756 891-1048 partner limits assumed): as the sequence (P06756 891-1048 partner limits assumed) above
T1 sequence (P05106 27-788): as the sequence (P05106 27-788) above

SMILES: NCCCOc1ccc2cc(CC(=O)O)c(=O)n(Cc3ccccc3)c2c1 (as salt: salt) [Example 136, [1-Benzyl-7-(3-amino-propoxy)-2-oxo-1,2-dihydro-quinolin-3-yl]-acetic Acid]
melting point: 126 to 128 °C

SMILES: N=C(N)NCCCCCOc1cccc2c1NC(=O)C(CC(=O)O)C2 (stereo not drawn) (as salt: salt) [Example 250, [8-(5-Guanidino-pentoxy)-2-oxo-1,2,3,4-tetrahydro-quinolin-3-yl]-acetic Acid]
melting point: 126 to 131 °C

SMILES: N=C(N)NCCOc1ccc2cc(CCC(=O)O)c(=O)[nH]c2c1.O=[N+]([O-])O [Example 247, 3-[7-(2-Guanidino-ethoxy)-2-oxo-1,2-dihydro-quinolin-3-yl]-propionic Acid Nitric Acid Salt]
remaining activity at 200 µM (αIIbβ3 integrin; [3]): 100%
melting point: 211 °C (dec.)

SMILES: CCn1c(=O)c(CC(=O)O)cc2ccc(OCCCN)cc21.O=C(O)C(F)(F)F
melting point: 182 to 184 °C

SMILES: N=C(N)NCCCOc1ccc2cc(CC(=O)O)c(=O)[nH]c2c1.O=C(O)C(F)(F)F [Example 186, [7-(3-Guanidino-propoxy)-2-oxo-1,2-dihydro-quinolin-3-yl]-acetic Acid Trifluoroacetate]
remaining activity at 20 µM (αVβ3 integrin; @ 20 μM, % of maximal attachment, read-out: (αVβ3) CELL ATTACHMENT, % @ concentration): 113%
remaining activity at 100 µM (αVβ3 integrin; [4]): 68.9%
melting point: 195 to 198 °C

SMILES: N=C(N)NCCCCOc1ccc2c(c1)CC(CC(=O)O)C(=O)N2 (stereo not drawn) (as salt: salt) [Example 229, [6-(4-Guanidino-butoxy)-2-oxo-1,2,3,4-tetrahydro-quinolin-3-yl]-acetic Acid]
melting point: 170 to 173 °C

SMILES: N=C(N)NCCCCCOc1cccc2c1NC(=O)C(CC(=O)O)C2 (stereo not drawn) [Example 250, [8-(5-Guanidino-pentoxy)-2-oxo-1,2,3,4-tetrahydro-quinolin-3-yl]-acetic Acid]
remaining activity at 30 µM [1, 2]: 102%
remaining activity at 10 µM (αVβ3 integrin; @ 10 μM, % of maximal attachment, read-out: (αVβ3) CELL ATTACHMENT, % @ concentration): 90%
remaining activity at 100 µM (αVβ3 integrin; [4]): 89%
inhibition at 215 µM (osteoclasts; Rattus norvegicus, Osteoclast, @ 215 μM): -5%
remaining activity at 200 µM (αIIbβ3 integrin; [3]): 69%

SMILES: N=C(N)NCCCOc1ccc2c(c1)CC(CC(=O)O)CC2.O=C(O)C(F)(F)F (stereo not drawn) [Example 40, [7-(3-Guanidino-propoxy)-1,2,3,4-tetrahydro-napthalen-2-yl]-acetic Acid Trifluoroacetate]
(αVβ3) RECEPTOR BINDING, % @ concentration [1]: 130% @30
IC50 (αVβ3 integrin): 47 µM
BONE PITTING INHIBITION (osteoclasts; @ 238 μM): 39%@238
IC50 (αIIbβ3 integrin): 148 µM

SMILES: N=C(N)NCCCCOc1ccc2c(c1)CC(CC(=O)O)C(=O)N2 (stereo not drawn) [Example 229, [6-(4-Guanidino-butoxy)-2-oxo-1,2,3,4-tetrahydro-quinolin-3-yl]-acetic Acid]
remaining activity at 30 µM [1, 2]: 100%
remaining activity at 100 µM (αVβ3 integrin; [4]): 82%
inhibition at 214 µM (osteoclasts; Rattus norvegicus, Osteoclast, @ 214 μM): 2%
IC50 (αIIbβ3 integrin): 146 µM

SMILES: COC(=O)CC1CCc2cc(OCCCNC3=NCCCN3)ccc2C1 (stereo not drawn) [Example 215]
IC50 [1]: 2 µM
IC50 (αVβ3 integrin): 37.4 µM
inhibition at 200 µM (osteoclasts; Rattus norvegicus, Osteoclast, @ 200 μM): 90%
IC50 (αIIbβ3 integrin): 151 µM

SMILES: N=C(N)NCCOc1ccc2cc(CC(=O)O)c(=O)[nH]c2c1 (as salt: trifluoroacetate) [Example 185, [7-(2-Guanidino-ethoxy)-2-oxo-1,2-dihydro-quinolin-3-yl]-acetic Acid]
melting point: 219 to 220 °C

More lines, main results first:

remaining activity at 30 µM [1, 2]: 50%
IC50 (αVβ3 integrin): 86 µM
IC50 (αIIbβ3 integrin): 87 µM
SMILES: N=C(N)NCCCCNC(=O)c1ccc2c(c1)NC(=O)C(CC(=O)O)C2 (stereo not drawn) [Example 202, [7-(4-Guanidino-butylcarbamoyl)-2-oxo-1,2,3,4-tetrahydro-quinolin-3-yl]-acetic Acid Hydrochloride]
inhibition at 240 µM (osteoclasts; Rattus norvegicus, Osteoclast, @ 240 μM): 37%

melting point: 119 to 122 °C
SMILES: N=C(N)NCCOc1ccc2c(c1)CC(CCC(=O)O)C(=O)N2 (stereo not drawn) (as salt: salt) [Example 222, 3-[6-(2-Guanidino-ethoxy)-2-oxo-1,2,3,4-tetrahydro-quinolin-3-yl]-propionic Acid]

IC50 [1]: 5.8 µM
IC50 (αVβ3 integrin): 25.4 µM
remaining activity at 200 µM (αIIbβ3 integrin; [3]): 85%
SMILES: N=C(N)NCCCNC(=O)c1ccc2c(c1)NC(=O)C(CC(=O)O)C2 (stereo not drawn) [Example 201, [7-(3-Guanidino-propylcarbamoyl)-2-oxo-1,2,3,4-tetrahydro-quinolin-3-yl]-acetic Acid Hydrochloride]
inhibition at 256 µM (osteoclasts; Rattus norvegicus, Osteoclast, @ 256 μM): 45%

remaining activity at 100 µM ([1]; @ 100 μM, % Max = percentage of the specific binding, read-out: (αVβ3) RECEPTOR BINDING, % @ concentration): 31.4%
IC50 (αVβ3 integrin): 145 µM
remaining activity at 200 µM (αIIbβ3 integrin; [3]): 94%
SMILES: N=C(N)NCCNC(=O)c1ccc2c(c1)NC(=O)C(CC(=O)O)C2 (stereo not drawn) [Example 200, [7-(2-Guanidino-ethylcarbamoyl)-2-oxo-1,2,3,4-tetrahydro-quinolin-3-yl]-acetic Acid Hydrochloride]
inhibition at 254 µM (osteoclasts; Rattus norvegicus, Osteoclast, @ 254 μM): 20%

(αVβ3) RECEPTOR BINDING, % @ concentration ([1]; @ 30 μM, % Max = percentage of the specific binding): 57%@ 30
(αVβ3) CELL ATTACHMENT, % @ concentration (αVβ3 integrin; @ 100 μM, % of maximal attachment): 88%@ 100
Percent of Maximal (αIIbβ3 integrin; [3]): 83.7@200%
SMILES: N=C(N)NCCCOc1ccc2c(c1)CC(CC(=O)O)C(=O)N2 (stereo not drawn) [Example 228, [6-(3-Guanidino-propoxy)-2-oxo-1,2,3 4-tetrahydro-quinolin-3-yl]-acetic Acid]
BONE PITTING INHIBITION (osteoclasts; @ 230 μM): 7%@ 230

melting point: 205 to 208 °C
SMILES: NCCOc1ccc2c(c1)NC(=O)C(CC(=O)O)C2 (stereo not drawn) [Example 204, [7-(2-Amino-ethoxy)-2-oxo-1,2,3,4-tetrahydro-quinolin-3-yl]-acetic Acid]

IC50 [1]: 1.7 µM
IC50 (αVβ3 integrin): 62.2 µM
remaining activity at 200 µM (αIIbβ3 integrin; [3]): 85.3%
SMILES: N=C(N)NCCOc1ccc2c(c1)CCCC(CC(=O)O)C2 (stereo not drawn) [Example 61, [2-(2-Guanidino-ethoxy)-6,7,8,9-tetrahydro-5H-benzocyclohepten-6-yl]-acetic Acid Hydrochloride]
inhibition at 271 µM (osteoclasts; Rattus norvegicus, Osteoclast, @ 271 μM): 32%

IC50 [1]: 15.7 µM
IC50 (αVβ3 integrin): 111 µM
remaining activity at 200 µM (αIIbβ3 integrin; [3]): 93.3%
SMILES: N=C(N)NCCOc1ccc2c(c1)NC(=O)C(CC(=O)O)C2 (stereo not drawn) [Example 85, [7-(2-Guanidino-ethoxy)-2-oxo-1,2,3,4-tetrahydro-quinolin-3-yl]-acetic Acid Hydrochloride]
inhibition at 273 µM (osteoclasts; Rattus norvegicus, Osteoclast, @ 273 μM): 33%

melting point: 194 to 196 °C
SMILES: NCCCOc1ccc2c(c1)NC(=O)C(CC(=O)O)C2 (stereo not drawn) (as salt: salt) [Example 205, [7-(3-Amino-propoxy)-2-oxo-1,2,3,4-tetrahydro-quinolin-3-yl]-acetic Acid]
